Measured values from PMC10458055, “Monocarboxylate Transporter 13 (MCT13/SLC16A13) Functions as a Novel Plasma Membrane Oligopeptide Transporter” (Nutrients, 2023).

Columns and labels:
[1] = target: T1, MCT13 (SLC16A13), untagged, co-expressed with CD147 (Homo sapiens, UniProt Q7RTY0); test: inhibition of cephradine uptake in transfected HEK293T cells, LC-MS/MS; format: cell-based; settings: HEK-293T; read-out: % inhibition at 10 mM
T1 construct: untagged full-length MCT13, transiently co-transfected with CD147 in HEK293T cells; with Basigin
T1 sequence (Q7RTY0 1-426): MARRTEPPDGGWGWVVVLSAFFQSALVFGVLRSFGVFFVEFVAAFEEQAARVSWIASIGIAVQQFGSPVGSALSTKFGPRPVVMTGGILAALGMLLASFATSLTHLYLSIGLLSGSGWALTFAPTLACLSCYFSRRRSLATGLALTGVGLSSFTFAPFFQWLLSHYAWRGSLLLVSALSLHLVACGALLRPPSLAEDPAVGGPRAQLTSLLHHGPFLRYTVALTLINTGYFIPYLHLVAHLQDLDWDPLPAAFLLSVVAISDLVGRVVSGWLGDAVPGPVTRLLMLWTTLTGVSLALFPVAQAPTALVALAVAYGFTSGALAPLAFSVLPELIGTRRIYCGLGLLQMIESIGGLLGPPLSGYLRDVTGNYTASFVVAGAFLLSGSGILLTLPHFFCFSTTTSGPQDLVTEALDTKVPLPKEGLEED
T1 sequence (P35613 22-385 partner): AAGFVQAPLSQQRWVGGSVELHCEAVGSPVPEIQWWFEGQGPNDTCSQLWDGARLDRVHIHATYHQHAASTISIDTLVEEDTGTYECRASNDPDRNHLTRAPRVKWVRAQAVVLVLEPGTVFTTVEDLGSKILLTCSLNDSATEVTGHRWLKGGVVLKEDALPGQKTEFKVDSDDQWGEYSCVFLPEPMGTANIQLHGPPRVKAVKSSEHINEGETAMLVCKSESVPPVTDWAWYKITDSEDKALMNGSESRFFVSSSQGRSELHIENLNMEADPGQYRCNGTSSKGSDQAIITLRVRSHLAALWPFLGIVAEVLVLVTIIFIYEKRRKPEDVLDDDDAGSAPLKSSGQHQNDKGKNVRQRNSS

[2] = target: T1, MCT13 (SLC16A13), untagged, co-expressed with CD147; test: as above; format: cell-based; settings: 1 mM cephradine, KCl buffer with 1% DMSO, 5 min, mock subtracted
[3] = target: T1, MCT13 (SLC16A13), untagged, co-expressed with CD147; test: as above; format: cell-based; settings: 1 mM cephradine, KCl buffer, 5 min, mock subtracted
[4] = substrate: CC1=C(C(=O)O)N2C(=O)[C@@H](NC(=O)[C@H](N)C3=CCC=CC3)[C@H]2SC1; test: uptake in transfected HEK293T cells, LC-MS/MS; format: cell-based, Homo sapiens

**Q.** With `N[C@@H](CCC(=O)N[C@@H](CS)C(=O)NCC(=O)O)C(=O)O` [glutathione] as the molecule, how does the inhibition at 10000 µM [1] read?
**A.** Its inhibition at 10000 µM is 30%.

**Q.** How did the “% of control at 50 uM” value [2] turn out when `CO[C@H]1/C=C/O[C@@]2(C)Oc3c(C)c(O)c4c(O)c(c(/C=N/N5CCN(C)CC5)c(O)c4c3C2=O)NC(=O)/C(C)=C\C=C\[C@H](C)[C@H](O)[C@@H](C)[C@@H](O)[C@@H](C)[C@H](OC(C)=O)[C@@H]1C` [rifampicin] was run?
**A.** Its value is “Probenecid and rifampicin, which are typical inhibitors of organic anion transporters”.

**Q.** How did the “% of control at 10 mM” value [3] turn out when `CCCN(CCC)S(=O)(=O)c1ccc(C(=O)O)cc1` [Probenecid] was run?
**A.** The value was “Probenecid and rifampicin, which are typical inhibitors of organic anion transporters”.

**Q.** For `Cc1nnc(SCC2=C(C(=O)O)N3C(=O)[C@@H](NC(=O)Cn4cnnn4)[C@H]3SC2)s1` [Cephazolin], which inhibition at 10000 µM [1] is on record?
**A.** The inhibition at 10000 µM was 43%.

B1: MCT13 (SLC16A13), untagged, co-expressed with CD147 (Homo sapiens) (protein)
chain: MARRTEPPDGGWGWVVVLSAFFQSALVFGVLRSFGVFFVEFVAAFEEQAARVSWIASIGIAVQQFGSPVGSALSTKFGPRPVVMTGGILAALGMLLASFATSLTHLYLSIGLLSGSGWALTFAPTLACLSCYFSRRRSLATGLALTGVGLSSFTFAPFFQWLLSHYAWRGSLLLVSALSLHLVACGALLRPPSLAEDPAVGGPRAQLTSLLHHGPFLRYTVALTLINTGYFIPYLHLVAHLQDLDWDPLPAAFLLSVVAISDLVGRVVSGWLGDAVPGPVTRLLMLWTTLTGVSLALFPVAQAPTALVALAVAYGFTSGALAPLAFSVLPELIGTRRIYCGLGLLQMIESIGGLLGPPLSGYLRDVTGNYTASFVVAGAFLLSGSGILLTLPHFFCFSTTTSGPQDLVTEALDTKVPLPKEGLEED
notes: untagged full-length MCT13, transiently co-transfected with CD147 in HEK293T cells; with Basigin
**Q.** How did the Km ([4]; KCl buffer, 0.1-30 mM cephradine, co-expressed CD147) turn out when B1 was run?
**A.** The Km was 2.83 ± 0.63 mM.

B2: EGFP-tagged MCT13 (with CD147) (Homo sapiens) (protein)
chain: MARRTEPPDGGWGWVVVLSAFFQSALVFGVLRSFGVFFVEFVAAFEEQAARVSWIASIGIAVQQFGSPVGSALSTKFGPRPVVMTGGILAALGMLLASFATSLTHLYLSIGLLSGSGWALTFAPTLACLSCYFSRRRSLATGLALTGVGLSSFTFAPFFQWLLSHYAWRGSLLLVSALSLHLVACGALLRPPSLAEDPAVGGPRAQLTSLLHHGPFLRYTVALTLINTGYFIPYLHLVAHLQDLDWDPLPAAFLLSVVAISDLVGRVVSGWLGDAVPGPVTRLLMLWTTLTGVSLALFPVAQAPTALVALAVAYGFTSGALAPLAFSVLPELIGTRRIYCGLGLLQMIESIGGLLGPPLSGYLRDVTGNYTASFVVAGAFLLSGSGILLTLPHFFCFSTTTSGPQDLVTEALDTKVPLPKEGLEED
notes: EGFP-tagged (pEGFP-C1) full-length MCT13, co-transfected with CD147 in HEK293T cells; with Basigin
**Q.** With B2 as the molecule, how does the Km ([4]; EGFP-tagged MCT13) read?
**A.** The Km was 3.95 ± 0.53 mM.
